From patent US20060173067A1, “Small molecules for the treatment of atherosclerosis” (The Regents of the University of California, priority 2004, published 2006)
“Also recorded” adds a separate entry of the source. Where a SMILES comes first, the peptide text is derived from it. [ ]: non-standard residue; d: D form. The star is where a group is joined. Boc = CC(C)(C)OC(=O)*; OtBu = CC(C)(C)O*; tBu = CC(C)(C)*

Key:
[1] = system: LDL-induced monocyte chemotactic activity in human artery wall cocultures; assay: Monocyte chemotactic activity in human artery wall cell coculture with HDL of peptide-fed apoE null mice; type: in vivo; details: female apoE null mice, 200 μg/gm chow, 15 weeks, 50 μg/mL mouse HDL, FIG. 13
Excerpt: Lipoproteins, human artery wall cocultures, and monocytes can be prepared and monocyte chemotactic activity (MCA) determined as previously described (Van Lenten et al. (2002) Circulation, 106: 1127-1132). Induction of MCA by a standard control LDL can be determined in the absence or presence of the subject's HDL. Values in the absence of HDL are typically normalized to 1.0. Values greater than 1.0 after the addition of HDL indicate pro-inflammatory HDL; values less than 1.0 indicate anti-inflammatory HDL.
(§1) Female apoE null mice at age 8 weeks were given no additions to their diet (Chow) or received 200 μg/gm chow of SEQ ID NO:3 (+254) or 200 μg/gm chow of SEQ ID NO: 4 (+258), both synthesized from all D-amino acids. After 15 weeks the mice were bled and their plasma fractionated by FPLC and their HDL (mHDL) tested in a human artery wall cell coculture. A standard human LDL (at 100 μg/mL of LDL-cholesterol) was added alone (LDL) or not added (no addition) or was added with 50 μg/mL of normal human HDL (hHDL) or 50 μg/mL of mouse HDL (mHDL) to human artery wall cocultures and the resulting monocyte chemotactic activity was determined and plotted on the Y-axis.

[2] = Solubility of peptides in ethyl acetate; type: physicochemical; details: 10 mg/mL added, room temperature 30 minutes, FIG. 3
Procedure: To evaluate solubility in ethyl acetate, each peptide was weighed and added to a centrifuge tube and ethyl acetate (HPLC grade; residue after evaporation <0.0001%) was added to give a concentration of 10 mg/mL. The tubes were sealed, vortexed and kept at room temperature for 30 minutes with vortexing every 10 minutes. The tubes were then centrifuged for 5 minutes at 10,000 rpm and the supernatant was removed to a previously weighed tube. The ethyl acetate was evaporated under argon and the tubes weighed to determine the amount of peptide that had been contained in the supernatant. The percent of the originally added peptide that was dissolved in the supernatant is shown on the Y-axis. he data are mean±S.D. Control represents sham treated tubes; SEQ ID NO:3 and SEQ ID NO:4 were both synthesized from all D-amino acids. The sequence Boc-Phe-Arg-Glu-Leu-OtBu (SEQ ID NO:5, SEQ ID NO:250 in copending application U.S. Ser. No. 10/649,378) was synthesized from all L-amino acids.

[3] = Interaction of peptide with DMPC in an aqueous environment (dialysis, negative-stain electron micrograph); type: physicochemical; details: for appearance of solution after dialysis (deoxycholate removed): DMPC: peptide 1:10 wt:wt in PBS; for Bilayer dimension of stacked bilayers / Spacing between bilayers in the stack / Vesicular structures, size: DMPC: peptide 1:10 wt:wt, aqueous environment
Procedure: FIG. 4 SEQ ID NO:4 forms 7.5 nm particles when mixed with DMPC in an aqueous environment. To 1 mg/ml of DMPC suspension in phosphate buffered saline (PBS) was added 10% deoxycholate until the DMPC was dissolved. SEQ ID NO: 4 or SEQ ID NO:3 were added (DMPC: peptide; 1:10; wt:wt) and the reaction mixture dialyzed. […] The figure is an electron micrograph prepared with negative staining and at 147,420× magnification. The arrows indicate SEQ ID NO: 4 particles measuring 7.5 nm (they appear as small white particles).
To 1 mg/ml of DMPC suspension in phosphate buffered saline (PBS) was added 10% deoxycholate until the DMPC was dissolved. Peptides, SEQ ID NO:4 or SEQ ID NO:3, were added (DMPC: peptide; 1:10; wt:wt) and the reaction mixture dialyzed.

[4] = system: apoE null mice; assay: Atherosclerosis in apoE null mice fed peptide in chow for 15 weeks; type: in vivo; details: female apoE null mice, 200 μg/gm chow
Procedure: The aortic root (aortic sinus) lesion score was determined in the apoE null mice described in FIG. 13. The number of mice in each group is shown (n=) at the bottom of the figure and a representative section for each group is shown at the top of the figure.
The percent aortic surface containing atherosclerotic lesions was determined in en face preparations in the apoE null mice described in FIG. 13. The number of mice in each group is shown (n=) at the bottom of the left panel and a representative aorta for mice fed chow alone or chow supplemented with. SEQ ID NO:4 is shown in the right panel.
as §1

[5] = Solubility in aqueous buffer at pH 7.0; type: physicochemical; details: pH 7.0, data not shown
[6] = Interaction of peptide with DMPC in an aqueous environment (dialysis, negative-stain electron micrograph); type: physicochemical; details: DMPC: peptide 1:10 wt:wt
[7] = system: apoE null mice; assay: Atherosclerosis in apoE null mice fed SEQ ID NO:5 in chow for 12 weeks; type: in vivo; details: 200 μg/gm chow, p=0.012, FIG. 16

solubility in ethyl acetate [2] | appearance of solution after dialysis (deoxycholate removed) [3] | formation of 7.5 nm particles, stacked lipid-peptide bilayers, 38 nm vesicular structures ([3]; conditions of FIG. 4, data not shown) | solubility in aqueous buffer at pH 7.0 [5] | Bilayer dimension of stacked bilayers [3] | Spacing between bilayers in the stack [3] | Vesicular structures, size [3] | Vesicular structures, size ([3]; listed as SEQ ID NO: 4) | Bilayer dimension of stacked bilayers ([3]; listed as SEQ ID NO: 6) | Spacing between bilayers in the stack ([3]; listed as SEQ ID NO: 6) | Vesicular structures, size ([3]; listed as SEQ ID NO: 6) | diameter of particles formed with DMPC (Size "Nascent HDL Particles") ([6]; listed as SEQ ID NO: 4) | diameter of particles formed with DMPC (Size "Nascent HDL Particles") ([6]; listed as SEQ ID NO: 6) | Compound | HDL rendered anti-inflammatory (monocyte chemotactic activity) [1] | aortic root (aortic sinus) atherosclerosis, lesion score ([4]; FIG. 14) | aortic atherosclerosis in en face preparations, percent aortic surface containing lesions ([4]; FIG. 15) | HDL rendered anti-inflammatory (monocyte chemotactic activity) ([1]; listed as SEQ ID NO: 4) | aortic root (aortic sinus) atherosclerosis, lesion score ([4]; FIG. 14, listed as SEQ ID NO: 4) | aortic atherosclerosis in en face preparations, percent aortic surface containing lesions ([4]; FIG. 15, listed as SEQ ID NO: 4) | % Aortic Surface Area with Lesions in en face preparations [7]
poorly soluble | turbid | did not form |  |  |  |  |  |  |  |  |  |  | CC(C)(C)OC[C@@H](NC(=O)[C@@H](CCCNC(=N)N)NC(=O)[C@@H](CCC(=O)O)NC(=O)[C@@H](CCCCNC(=O)OC(C)(C)C)NC(=O)OC(C)(C)C)C(=O)OC(C)(C)C [SEQ ID NO:3, Boc-Lys(εBoc)-Glu-Arg-Ser(tBu)-OtBu] (Boc-[dK](Boc)[dE][dR][dS](tBu)-OtBu) | not | not | not |  |  |  | 
very soluble |  |  |  |  |  |  |  |  |  |  |  |  | CC(C)C[C@H](NC(=O)[C@H](CCC(=O)O)NC(=O)[C@H](CCCNC(=N)N)NC(=O)[C@H](Cc1ccccc1)NC(=O)OC(C)(C)C)C(=O)OC(C)(C)C [SEQ ID NO:5, Boc-Phe-Arg-Glu-Leu-OtBu] (Boc-FREL-OtBu) |  |  |  |  |  |  | significantly decreases atherosclerosis

Compound | solubility in ethyl acetate [2] | appearance of solution after dialysis (deoxycholate removed) [3] | formation of 7.5 nm particles, stacked lipid-peptide bilayers, 38 nm vesicular structures ([3]; conditions of FIG. 4, data not shown) | solubility in aqueous buffer at pH 7.0 [5] | Bilayer dimension of stacked bilayers [3] | Spacing between bilayers in the stack [3] | Vesicular structures, size [3] | Vesicular structures, size ([3]; listed as SEQ ID NO: 4) | Bilayer dimension of stacked bilayers ([3]; listed as SEQ ID NO: 6) | Spacing between bilayers in the stack ([3]; listed as SEQ ID NO: 6) | Vesicular structures, size ([3]; listed as SEQ ID NO: 6) | diameter of particles formed with DMPC (Size "Nascent HDL Particles") ([6]; listed as SEQ ID NO: 4) | diameter of particles formed with DMPC (Size "Nascent HDL Particles") ([6]; listed as SEQ ID NO: 6) | HDL rendered anti-inflammatory (monocyte chemotactic activity) [1] | aortic root (aortic sinus) atherosclerosis, lesion score ([4]; FIG. 14) | aortic atherosclerosis in en face preparations, percent aortic surface containing lesions ([4]; FIG. 15) | HDL rendered anti-inflammatory (monocyte chemotactic activity) ([1]; listed as SEQ ID NO: 4) | aortic root (aortic sinus) atherosclerosis, lesion score ([4]; FIG. 14, listed as SEQ ID NO: 4) | aortic atherosclerosis in en face preparations, percent aortic surface containing lesions ([4]; FIG. 15, listed as SEQ ID NO: 4) | % Aortic Surface Area with Lesions in en face preparations [7]
CC(C)(C)OC[C@@H](NC(=O)[C@@H](CCC(=O)O)NC(=O)[C@@H](CCCNC(=N)N)NC(=O)[C@@H](CCCCNC(=O)OC(C)(C)C)NC(=O)OC(C)(C)C)C(=O)OC(C)(C)C [SEQ ID NO:4, Boc-Lys(εBoc)-Arg-Glu-Ser(tBu)-OtBu] (Boc-[dK](Boc)[dR][dE][dS](tBu)-OtBu) | very soluble; also recorded: highly soluble | remained clear |  | soluble | 3.4 to 4.1 nm | approximately 2 nm | approximately 38 nm | approximately 38 nm | 3.4-4.1 nm | 2.0 nm | 38 nm | approximately 7.5 nm | 7.5 nm | renders apoE null HDL anti-inflammatory | significantly decreases | significantly decreases | rendered anti-inflammatory | significantly reduced | significantly decreased | 
